Where only a bound is given, the exact number is not on record here.

The values that follow come from PMC9920413, “New Bicyclic Pyridine-Based Hybrids Linked to the 1,2,3-Triazole Unit: Synthesis via Click Reaction and Evaluation of Neurotropic Activity and Molecular Docking” (Molecules, 2023).

Data set [1] relates to rats. Description: Open field test. The settings on record: 50 mg/kg i.p.; for Cells Examination, amount (absolute data during 5 min): control 2.4 ± 0.67; for Vertical Displacement, amount (absolute data during 5 min): control 7.0 ± 2.14; for Horizontal Displacement, amount (absolute data during 5 min): control 21.6 ± 2.25. The class given is in vivo. As for the experimental part: Open field test. The research-motor behavior of rats was studied on a modified “open field” model. For this purpose, an installation was used, the bottom of which is divided into squares with holes (cells). Experiments were performed in the daytime with natural light. Within 5 min of the experiment, the indicators of sedative and activating behavior were determined, namely the number of horizontal movements, standing on the hind legs (vertical movements), and sniffing of the cells. The number of animals on this model was eight for each compound, control, and reference drug.

Data set [2] concerns pentylenetetrazole (PTZ)-induced convulsions. Description: Antagonism to pentylenetetrazole (PTZ) convulsions. Format: in vivo. The settings on record: for ED50: Mus musculus, mice, i.p. 45 min before PTZ 90 mg/kg s.c., confidence limits in brackets, p = 0.05, read-out: ED50 (by PTZ antagonism); for TI: therapeutic index TI = LD50/ED50. The protocol:
(§1) The study of the anticonvulsant activity of hybrids 7a–u was assessed by evaluating the antagonism to pentylenetetrazole (PTZ), thiosemicarbazide convulsive seizures, and maximal electroshock-induced seizures (MES). The PTZ-induced test is considered an experimental model for the clonic component of epilepsy seizures and the prognostic anxiolytic activity of the compounds. PTZ is a common convulsive agent used in animal models to investigate the mechanisms of seizures. The model of thiosemicarbazide (TSC) seizures (affecting the exchange of GABA) causes clonic seizures similar to pentylenetetrazole ones. The MES test is used as an animal model for the generalization of tonic seizures in epilepsy. The neurotoxicity and side effects of the compounds (movement coordination disorder, myorelaxation, and ataxia) were also studied on mice with the “rotating rod”[29] test.
The anticonvulsant effect of the newly synthesized compounds was investigated by tests comprising pentylenetetrazole, thiosemicarbazide convulsions, and maximal electroshock (MES). Outbred mice (weight 18–22 g) were used for the study. […] Each animal is placed into an individual plastic cage for observation lasting 1 h. Seizures and clonic convulsions were recorded. […] The control animals were administered as an emulsifier. Every dose of each test compound was studied in six animals.
(§2) Adverse neurotoxic (muscle relaxant) effects of compounds were studied at doses of 50 to 500 mg/kg when administered intraperitoneally, as well as reference drugs in effect at anticonvulsant doses. Myorelaxation was investigated with the test of a “rotating rod” in mice. To this end, mice were planted on a metal rod with a corrugated rubber coating, which rotated at a speed of 5 revolutions per minute. The number of animals that cnot stay on it for 2 min was determined. To determine the ED50, neurotoxic TD50, and LD50, the statistical method of penetration by Litchfield and Wilcoxon was used.

The test system of data set [3] is mouse. Description: Elevated plus maze (EPM) test. The class given is in vivo. Particulars: 50 mg/kg i.p., 5 min; for Time Spent in the Open Arms: control 2.6 ± 1.6; for Number of Entries into the Closed Arms: control 9.4 ± 1.6; for Time Spent in the Center: control 28.2 ± 3.12; for Time Spent in Closed Arms: control 269.2 ± 10.4. An excerpt: Elevated plus maze—EPM test. Anti-anxiety and sedative effects were studied on mouse a model of the “elevated plus maze”. The labyrinth is a cruciform machine raised above the floor, with a pair of open and closed sleeves opposed to each other. Normal animals prefer to spend most of their time in the closed (dark) sleeves of the labyrinth. The anxiolytic effect of the compounds was estimated by the increase in the number of entries into open (light) sleeves and the time spent in them without increasing the total motor activity. This records the time spent in the closed sleeve and the number of attempts to enter the installation center. In the above model, the test compounds and the reference drug were injected intraperitoneally before the experiments. The control animals were administered as an emulsifier. Results were processed statistically (p < 0.05).

A short description of data set [4]: Rotating rod test (neurotoxicity, myorelaxation). Format: in vivo. The settings on record: outbred, mouse, in vivo, ip, mice, myorelaxation in 50% of animals. As for the experimental part: as §1, §2
A short description of data set [5]: in vivo. The settings on record: outbred, mouse, in vivo; mice, dead animals after 24 h. As for the experimental part:
as §2

Data set [6] relates to mice. Description: Forced swimming test.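 On all read-outs here: mice made to swim in a water-filled glass vessel under natural light, with durations of active swimming and immobility recorded across the 6 min session.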 The settings on record: 50 mg/kg, 6 min; for Total Time of Immobilization: control 42.0 ± 7.24; for Total Time of Active Swimming: control 318.0 ± 8.36.
Experimental: Forced swimming test. To assess “despair and depression”, the “compelling swimming” model was used. Experimental animals were forced to swim in a glass container (height 22 cm, diameter 14 cm), filled 1/3 with water. […] The latent period of immobilization, the total duration of active swimming and immobilization are fixed at 6 min (the experiments were conducted under natural light).
In data set [7] the test system is thiosemicarbazide (TSC)-induced convulsions. Description: Thiosemicarbazide (TSC) seizures. Format: in vivo, mice. The settings on record: mice; for response vs control in vivo at 100 mg/kg: Mus musculus, ip, compound 100 mg/kg i.p., relative to control = 1.0, read-out: Latency of Convulsions, Induced by TSC, I (index of latent period of TSC seizures); for Latency of Convulsions, Induced by TSC, M ± M: compound 100 mg/kg i.p. 45 min before TSC 18 mg/kg s.c. As for the experimental part: as §1
Thiosemicarbazide, an antimetabolite of GABA inhibitor (glutamic acid decarboxylase) in the brain, is administered subcutaneously to mice at a dose of 18 mg/kg as a 0.5% solution, which causes clonic convulsions in animals. Anti-thiosemicarbazide activity was evaluated based on the latency time of the onset of seizures. Compounds were administered intraperitoneally at doses of 100 mg/kg in suspension with carboxymethylcellulose and Tween-80 45 min before administration of thiosemicarbazide.

Data set [8] relates to rats. Description: Electroshock retrograde amnesia, conditioned response of passive avoidance (CRPA). The class given is in vivo. The settings on record: 1000 mg/kg, study for 5 min. As for the experimental part:
Test for learning and memory. The antiamnesic properties of the compounds were studied using an electroshock amnesia model modified by J. Bures, O. Buresova. In rats, a conditioned passive avoidance reaction (CRPA) to a dark-light setting was developed, while the training of the animals with CRPA was recorded. The residence times in the light and dark compartments were recorded for 5 min (300 s). Then, in the dark compartment, the animal received a single current shock (0.4 mA) through the electrode floor (training). To obtain amnesia, a maximum electroconvulsive seizure is induced in animals (conducting a maximum electric current of 50 Hz for 0.2 s through corneal electrodes). Conducting an electric shock immediately after training causes the erasure of the memory trace. The test for reproduction is carried out 24 h after training—after the development of CRPA. During this period, the control animals forget the training and prefer to be in the dark part of the chamber. An increase in the time spent by rats in the light compartment compared to the control on the second day indicates the presence of antiamnestic properties of the compounds.

Regarding `CCc1nc(OCc2cn(CC(=O)N3CCN(c4nc(CC)c5c(c4C#N)CC(C)(C)OC5)CC3)nn2)c(C#N)c2c1COC(C)(C)C2` [7q, 6-{4-[(4-{[(5-Cyano-8-ethyl-3,3-dimethyl-3,4-dihydro-1H-pyrano [3,4-c]pyridin-6-yl)oxy]methyl}-1H-1,2,3-triazol-1-yl)acetyl]piperazin-1-yl}-8-ethyl-3,3-dimethyl-3,4-dihydro-1H-pyrano [3,4-c]pyridine-5-carbonitrile], in data set [1], the “Cells Examination, amount (absolute data during 5 min)” value (“Cells Examination, amount” for short) is 7.4 ± 2.42; the “Vertical Displacement, amount (absolute data during 5 min)” value (from here on “Vertical Displacement, amount”) is 8.8 ± 1.61; the “Horizontal Displacement, amount (absolute data during 5 min)” value (from here on “Horizontal Displacement, amount”) is recorded as 60.2 ± 4.61. Further, in data set [2], the ED50 was found to be 42 mg/kg and the TI is on record as 18.8. Moreover, in data set [3], the “Time Spent in the Open Arms” value was found to be 24.0 ± 2.5 s, the “Number of Entries into the Closed Arms” value stood at 5.0 ± 2.19, the “Time Spent in the Center” value is reported as 50.8 ± 3.4 s and the “Time Spent in Closed Arms” value stood at 225.2 ± 13.87 s. The TD50 at 2 min in data set [4] was greater than 500 mg/kg. Further, in data set [5], the 50% lethal dose (LD50) at 24 h came to 790 mg/kg. In data set [6], the “Total Time of Immobilization” value was 24.0 ± 2.9 s and the “Total Time of Active Swimming” value stood at 336.0 ± 25.3 s. Further, in data set [7], the response vs control in vivo at 100 mg/kg worked out at 220% and the “Latency of Convulsions, Induced by TSC, M ± M” value (“Latency of Convulsions, Induced” below) amounted to 22.0 ± 2.2 min.
For the compound `CCCc1nc(OCc2cn(CC(=O)N3CCN(c4nc(CCC)c5c(c4C#N)CC(C)(C)OC5)CC3)nn2)c(C#N)c2c1COC(C)(C)C2` [7u, 6-{4-[(4-{[(5-Cyano-3,3-dimethyl-8-propyl-3,4-dihydro-1H-pyrano [3,4-c]pyridin-6-yl)oxy]methyl}-1H-1,2,3-triazol-1-yl)acetyl]piperazin-1-yl}-3,3-dimethyl-8-propyl-3,4-dihydro-1H-pyrano [3,4-c]pyridine-5-carbonitrile], in data set [1], the “Cells Examination, amount” value is on record as 2.2 ± 1.03; the “Vertical Displacement, amount” value came out at 3.6 ± 0.67; the “Horizontal Displacement, amount” value stood at 41.8 ± 6.12. In data set [2], the ED50 was found to be 32 mg/kg and the TI amounted to 21.3. Also, in data set [3], the “Time Spent in the Open Arms” value was 20.0 ± 3.12 s, the “Number of Entries into the Closed Arms” value was found to be 4.4 ± 2.1, the “Time Spent in the Center” value is 36.2 ± 2.38 s and the “Time Spent in Closed Arms” value is reported as 243.8 ± 20.7 s. The compound also returned a TD50 at 2 min in data set [4] greater than 500 mg/kg. Besides, the LD50 at 24 h in data set [5] came out at 680 mg/kg. Moreover, in data set [6], the “Total Time of Immobilization” value is listed as 84.0 ± 12.5 s and the “Total Time of Active Swimming” value turned out to be 276.0 ± 26.0 s. For the same compound, in data set [7], the response vs control in vivo at 100 mg/kg turned out to be 438% and the “Latency of Convulsions, Induced” value is 43.8 ± 1.03 min.
In the case of `CCCc1nc(N2CCN(C(=O)Cn3cc(COc4nc(C(C)C)c5c(c4C#N)CCC5)nn3)CC2)c(C#N)c2c1COC(C)(C)C2` [7c, 6-{4-[(4-{[(4-Cyano-1-isopropyl-6,7-dihydro-5H-cyclopenta[c]pyridin-3-yl)oxy]methyl}-1H-1,2,3-triazol-1-yl)acetyl]piperazin-1-yl}-3,3-dimethyl-8-propyl-3,4-dihydro-1H-pyrano [3,4-c]pyridine-5-carbonitrile], in data set [1], the “Cells Examination, amount” value is recorded as 4.2 ± 0.56; the “Vertical Displacement, amount” value is listed as 6.2 ± 1.03; the “Horizontal Displacement, amount” value worked out at 57.2 ± 12.85. Also, in data set [2], the ED50 turned out to be 35 mg/kg and the TI worked out at 18.6. For the same compound, in data set [3], the “Time Spent in the Open Arms” value was determined as 10.6 ± 2.1 s, the “Number of Entries into the Closed Arms” value was 2.6 ± 1.4, the “Time Spent in the Center” value was found to be 45.4 ± 4.7 s and the “Time Spent in Closed Arms” value was 244.0 ± 10.67 s. The TD50 at 2 min in data set [4] was greater than 500 mg/kg. This compound returned an LD50 at 24 h in data set [5] of 650 mg/kg. Besides, in data set [6], the “Total Time of Immobilization” value stood at 10.0 ± 4.1 s and the “Total Time of Active Swimming” value worked out at 350.0 ± 11.62 s. In data set [7], the response vs control in vivo at 100 mg/kg worked out at 250% and the “Latency of Convulsions, Induced” value is reported as 25.0 ± 4.1 min.
`CCCc1nc(N2CCN(C(=O)Cn3cc(COc4nc(CC)c5c(c4C#N)CC(C)(C)OC5)nn3)CC2)c(C#N)c2c1COC(C)(C)C2` [7r, 6-[(1-{2-[4-(5-Cyano-3,3-dimethyl-8-propyl-3,4-dihydro-1H-pyrano [3,4-c]pyridin-6-yl)piperazin-1-yl]-2-oxoethyl}-1H-1,2,3-triazol-4-yl)methoxy]-8-ethyl-3,3-dimethyl-3,4-dihydro-1H-pyrano [3,4-c]pyridine-5-carbonitrile]: in data set [1], the “Cells Examination, amount” value was found to be 4.4 ± 1.89; the “Vertical Displacement, amount” value is 2.2 ± 1.36; the “Horizontal Displacement, amount” value was 30.0 ± 2.48. Also, in data set [2], the ED50 is 26 mg/kg and the TI is 27.3. In data set [3], the “Time Spent in the Open Arms” value is 7.0 ± 2.59 s, the “Number of Entries into the Closed Arms” value amounted to 3.4 ± 1.59, the “Time Spent in the Center” value is 83.0 ± 5.1 s and the “Time Spent in Closed Arms” value was found to be 210.4 ± 10.3 s. In data set [4], the TD50 at 2 min was greater than 500 mg/kg. In data set [5], this compound displayed an LD50 at 24 h of 710 mg/kg. In addition, in data set [6], the “Total Time of Immobilization” value amounted to 36.0 ± 5.55 s and the “Total Time of Active Swimming” value stood at 324.0 ± 18.55 s. Also, in data set [7], the response vs control in vivo at 100 mg/kg came to 394% and the “Latency of Convulsions, Induced” value turned out to be 39.4 ± 1.11 min.
`NC(=O)CN1CCCC1=O` [Piracetam, piracetam, reference compound]: in data set [8], the “The Time Spent in the Light Chamber When Playing CRPA + MESH after 24 h, Second Day” value is listed as 243.7 ± 8.4 s and the “The Time Spent in the Light Chamber during the Training of the CRPA, First Day” value is on record as 158.0 ± 5.9 s.
